Results as given in patent US8507489B2, “Bicyclic triazoles as protein kinase modulators” (SGX Pharmaceuticals, Inc., priority 2006, dated 2013).

How the values were obtained:
ABL1 Y253F = ABL1 Y253F (Homo sapiens, UniProt P00519, Y253F); test: SelectScreen Kinase Profiling ABL1 Y253F; assay type: biochemical
Text: (§1) SelectScreen™ is a trademark screening assay protocol for kinases developed by Invitrogen Corporation, Madison, Wis. Details on assay conditions can be found on the company's website.

MAP4K4 (HGK) = MAP4K4 (HGK) (Homo sapiens, UniProt O95819); test: SelectScreen Kinase Profiling MAP4K4; assay type: biochemical
Text: as §1

GTL16 tumors = test: GTL16 tumor xenograft model, tumor growth; assay type: in vivo; details: last day of treatment, nude mice
Protocol: Female athymic nude mice (nu/nu from Harlan) were 6-8 weeks old with a body weight range of 18-22 g at the beginning of the study. The animals had free access to food and water throughout the study. The mice were housed on irradiated Alpha-Dri® Bed-O-Cobs® Laboratory Animal Bedding in static micro isolator caging on a 12-hour light cycle at 70-74° F. and 40-60% humidity. All procedures involving animals were conducted in compliance with the NIH Guide for the Care and Use of Laboratory Animals and all protocols were approved by an Internal Animal Care and Use Committee (IACUC).
Xenografts were initiated from GTL-16 tumor cells cultured and maintained by an internal Cell Biology Department. Each test mouse received a subcutaneous injection of 4×10^6 cells suspended in 100 μL of serum free RPMI media. Tumors were randomized into treatment groups on Day 5 when the average tumor size reached approximately 150 mm^3. Each dose groups contained n=5 mice. Tumor volume was calculated using the formula:
[formula] where w=width and l=length in mm of the tumor. Tumor weight may be estimated with the assumption that 1 mg is equivalent to 1 mm^3 of tumor volume. Tumor Growth Inhibition (TGI) Analysis
TGI was calculated from the difference between the mean tumor volumes of vehicle-treated and drug-treated mice, expressed as a percentage. % TGI=Mean Tumor Volumecontrol−Mean Tumor Volumedrug-treated×100 […] Tumor Volumecontrol
The MTV is defined as the mean tumor volume (MTV) for the number of animals, n, remaining in the study on that day.

FLT3 D835Y = FLT3 D835Y (Homo sapiens, UniProt P36888, D835Y); test: SelectScreen Kinase Profiling FLT3 D835Y; assay type: biochemical
Text: as §1

FES (FPS) = FES (FPS) (Homo sapiens, UniProt P07332); test: SelectScreen Kinase Profiling FES; assay type: biochemical
Text: as §1

FRAP1 (mTOR) = FRAP1 (mTOR) (Homo sapiens, UniProt P42345); test: SelectScreen Kinase Profiling FRAP1; assay type: biochemical
Text: as §1

KDR (VEGFR2) = KDR (VEGFR2) (Homo sapiens, UniProt P35968); test: SelectScreen Kinase Profiling KDR; assay type: biochemical
Text: as §1

c-MET = c-MET (Homo sapiens, UniProt P08581); test: MET luminescence-based enzyme assay (Kinase-Glo); assay type: biochemical
Protocol: The subscript designates positive or negative controls. The Z′ score for a robust screening assay should be ≧0.50. The typical threshold=μ+−3*σ+. Any value that falls below the threshold was designated a “hit”.
MET Luminescence-Based Enzyme Assay
MET kinase (see below), Kinase-Glo™ (Promega Cat#V6712).
Negative controls contained 10 μM staurosporine.

GRK4 = GRK4 (Homo sapiens, UniProt P32298); test: SelectScreen Kinase Profiling GRK4; assay type: biochemical
Text: as §1

HCK = HCK (Homo sapiens, UniProt P08631); test: SelectScreen Kinase Profiling HCK; assay type: biochemical
Text: as §1

ABL1 T315I = ABL1 T315I (Homo sapiens, UniProt P00519, T315I); test: SelectScreen Kinase Profiling ABL1 T315I; assay type: biochemical
Text: as §1

PIM1 = PIM1 (Homo sapiens, UniProt P11309); test: SelectScreen Kinase Profiling PIM1; assay type: biochemical
Text: as §1

MET (cMet) = MET (cMet) (Homo sapiens, UniProt P08581); test: SelectScreen Kinase Profiling MET; assay type: biochemical
Text: as §1

IKBKB (IKK beta) = IKBKB (IKK beta) (Homo sapiens, UniProt O14920); test: SelectScreen Kinase Profiling IKBKB; assay type: biochemical
Text: as §1

PRKCD (PKC delta) = PRKCD (PKC delta) (Homo sapiens, UniProt Q05655); test: SelectScreen Kinase Profiling PRKCD; assay type: biochemical
Text: as §1

MET M1250T = MET M1250T (Homo sapiens, UniProt P08581, M1250T); test: SelectScreen Kinase Profiling MET M1250T; assay type: biochemical
Text: as §1

MAPK1 (ERK2) = MAPK1 (ERK2) (Homo sapiens, UniProt P28482); test: SelectScreen Kinase Profiling MAPK1; assay type: biochemical
Text: as §1

PDGFRA T674I = PDGFRA T674I (Homo sapiens, UniProt P16234, T674I); test: SelectScreen Kinase Profiling PDGFRA T674I; assay type: biochemical
Text: as §1

PTK2B (FAK2) = PTK2B (FAK2) (Homo sapiens, UniProt Q14289); test: SelectScreen Kinase Profiling PTK2B; assay type: biochemical
Text: as §1

PRKCD (PKC delta), sequence (Q05655 whole entry): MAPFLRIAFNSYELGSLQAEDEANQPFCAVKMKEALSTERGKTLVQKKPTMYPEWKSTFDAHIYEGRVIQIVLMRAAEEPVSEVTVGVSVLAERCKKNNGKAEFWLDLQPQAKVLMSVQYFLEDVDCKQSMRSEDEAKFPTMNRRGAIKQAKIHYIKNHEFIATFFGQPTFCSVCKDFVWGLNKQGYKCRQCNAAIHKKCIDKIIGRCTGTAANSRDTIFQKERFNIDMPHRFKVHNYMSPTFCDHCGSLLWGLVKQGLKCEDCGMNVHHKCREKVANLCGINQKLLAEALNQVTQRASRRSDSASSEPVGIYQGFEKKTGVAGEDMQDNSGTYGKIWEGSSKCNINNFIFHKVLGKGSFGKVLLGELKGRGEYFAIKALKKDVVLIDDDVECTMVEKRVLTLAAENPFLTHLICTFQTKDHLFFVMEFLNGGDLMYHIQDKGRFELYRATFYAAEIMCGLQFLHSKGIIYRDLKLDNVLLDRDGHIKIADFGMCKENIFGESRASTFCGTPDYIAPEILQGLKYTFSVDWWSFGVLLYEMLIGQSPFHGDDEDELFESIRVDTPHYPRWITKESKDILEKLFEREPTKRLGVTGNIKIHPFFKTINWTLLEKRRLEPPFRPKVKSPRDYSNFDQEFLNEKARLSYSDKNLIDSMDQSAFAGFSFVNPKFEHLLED
MAPK1 (ERK2), sequence (P28482 whole entry): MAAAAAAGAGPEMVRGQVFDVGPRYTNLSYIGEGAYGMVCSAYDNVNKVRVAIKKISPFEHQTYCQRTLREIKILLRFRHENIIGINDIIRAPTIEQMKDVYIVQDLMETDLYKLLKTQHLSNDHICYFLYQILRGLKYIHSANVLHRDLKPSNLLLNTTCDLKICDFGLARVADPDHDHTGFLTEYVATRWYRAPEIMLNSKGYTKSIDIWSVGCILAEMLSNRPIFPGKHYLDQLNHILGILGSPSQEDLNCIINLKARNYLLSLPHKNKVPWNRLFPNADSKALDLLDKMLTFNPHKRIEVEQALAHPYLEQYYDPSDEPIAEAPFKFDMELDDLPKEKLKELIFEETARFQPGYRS
HCK, sequence (P08631 whole entry): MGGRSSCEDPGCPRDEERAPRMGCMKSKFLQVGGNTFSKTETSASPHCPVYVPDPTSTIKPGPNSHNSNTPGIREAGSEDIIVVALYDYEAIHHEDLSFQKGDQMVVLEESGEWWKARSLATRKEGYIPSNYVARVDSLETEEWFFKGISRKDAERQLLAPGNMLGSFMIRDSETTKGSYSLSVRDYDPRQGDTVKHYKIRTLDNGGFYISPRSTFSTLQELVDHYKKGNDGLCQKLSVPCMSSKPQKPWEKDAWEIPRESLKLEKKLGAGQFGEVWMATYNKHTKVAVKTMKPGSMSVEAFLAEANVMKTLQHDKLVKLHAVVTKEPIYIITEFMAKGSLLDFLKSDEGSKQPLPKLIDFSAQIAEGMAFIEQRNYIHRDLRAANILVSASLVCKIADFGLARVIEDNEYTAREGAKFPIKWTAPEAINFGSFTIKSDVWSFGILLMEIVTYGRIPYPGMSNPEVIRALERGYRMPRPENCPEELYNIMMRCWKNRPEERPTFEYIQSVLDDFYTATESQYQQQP
PDGFRA T674I, sequence (P16234 24-1089 T674I): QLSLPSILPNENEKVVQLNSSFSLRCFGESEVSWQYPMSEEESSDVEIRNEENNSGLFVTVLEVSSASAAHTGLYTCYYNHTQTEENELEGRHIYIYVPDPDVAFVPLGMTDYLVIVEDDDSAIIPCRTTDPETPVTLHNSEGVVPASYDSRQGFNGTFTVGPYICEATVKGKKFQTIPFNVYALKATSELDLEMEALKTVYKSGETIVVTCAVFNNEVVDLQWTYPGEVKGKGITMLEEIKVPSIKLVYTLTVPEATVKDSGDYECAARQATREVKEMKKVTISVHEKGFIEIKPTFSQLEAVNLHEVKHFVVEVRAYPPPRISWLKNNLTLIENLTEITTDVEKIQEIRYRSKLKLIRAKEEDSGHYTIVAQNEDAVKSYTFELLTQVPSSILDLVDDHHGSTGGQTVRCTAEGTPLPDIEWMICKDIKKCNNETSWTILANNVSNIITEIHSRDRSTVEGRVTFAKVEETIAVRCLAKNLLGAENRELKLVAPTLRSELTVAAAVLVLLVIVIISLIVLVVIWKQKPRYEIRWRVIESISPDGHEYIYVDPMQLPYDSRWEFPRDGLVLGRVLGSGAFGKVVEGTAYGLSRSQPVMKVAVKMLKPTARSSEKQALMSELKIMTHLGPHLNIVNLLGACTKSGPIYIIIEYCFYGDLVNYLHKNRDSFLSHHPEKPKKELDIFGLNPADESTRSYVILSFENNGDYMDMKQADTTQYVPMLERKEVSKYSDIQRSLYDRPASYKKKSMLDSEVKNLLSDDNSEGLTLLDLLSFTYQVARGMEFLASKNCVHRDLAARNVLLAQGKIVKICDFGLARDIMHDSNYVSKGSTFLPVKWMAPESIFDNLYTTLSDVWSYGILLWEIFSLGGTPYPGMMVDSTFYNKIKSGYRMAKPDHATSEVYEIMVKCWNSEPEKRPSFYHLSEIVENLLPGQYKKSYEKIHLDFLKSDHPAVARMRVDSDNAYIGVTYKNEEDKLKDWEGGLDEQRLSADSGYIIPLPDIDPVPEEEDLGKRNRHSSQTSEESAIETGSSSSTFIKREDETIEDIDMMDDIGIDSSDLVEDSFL
IKBKB (IKK beta), sequence (O14920 whole entry): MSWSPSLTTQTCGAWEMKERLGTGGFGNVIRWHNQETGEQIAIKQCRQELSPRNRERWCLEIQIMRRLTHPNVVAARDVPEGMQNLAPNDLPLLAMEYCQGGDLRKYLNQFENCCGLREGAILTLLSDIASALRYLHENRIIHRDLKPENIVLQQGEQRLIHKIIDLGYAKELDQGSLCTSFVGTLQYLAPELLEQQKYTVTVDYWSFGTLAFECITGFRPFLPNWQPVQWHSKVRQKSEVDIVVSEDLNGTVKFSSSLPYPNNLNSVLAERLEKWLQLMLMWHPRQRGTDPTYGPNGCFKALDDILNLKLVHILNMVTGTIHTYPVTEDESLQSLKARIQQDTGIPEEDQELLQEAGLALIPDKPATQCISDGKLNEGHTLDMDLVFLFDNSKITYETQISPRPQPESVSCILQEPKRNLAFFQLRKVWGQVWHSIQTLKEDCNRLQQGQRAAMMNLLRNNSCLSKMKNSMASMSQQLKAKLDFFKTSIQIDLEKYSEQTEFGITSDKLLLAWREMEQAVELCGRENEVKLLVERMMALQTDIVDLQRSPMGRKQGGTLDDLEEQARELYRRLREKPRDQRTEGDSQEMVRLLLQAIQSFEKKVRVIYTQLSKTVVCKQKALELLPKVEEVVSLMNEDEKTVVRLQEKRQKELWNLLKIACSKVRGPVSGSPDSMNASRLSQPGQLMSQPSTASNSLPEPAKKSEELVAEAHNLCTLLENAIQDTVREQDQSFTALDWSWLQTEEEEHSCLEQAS
MAP4K4 (HGK), sequence (O95819 whole entry): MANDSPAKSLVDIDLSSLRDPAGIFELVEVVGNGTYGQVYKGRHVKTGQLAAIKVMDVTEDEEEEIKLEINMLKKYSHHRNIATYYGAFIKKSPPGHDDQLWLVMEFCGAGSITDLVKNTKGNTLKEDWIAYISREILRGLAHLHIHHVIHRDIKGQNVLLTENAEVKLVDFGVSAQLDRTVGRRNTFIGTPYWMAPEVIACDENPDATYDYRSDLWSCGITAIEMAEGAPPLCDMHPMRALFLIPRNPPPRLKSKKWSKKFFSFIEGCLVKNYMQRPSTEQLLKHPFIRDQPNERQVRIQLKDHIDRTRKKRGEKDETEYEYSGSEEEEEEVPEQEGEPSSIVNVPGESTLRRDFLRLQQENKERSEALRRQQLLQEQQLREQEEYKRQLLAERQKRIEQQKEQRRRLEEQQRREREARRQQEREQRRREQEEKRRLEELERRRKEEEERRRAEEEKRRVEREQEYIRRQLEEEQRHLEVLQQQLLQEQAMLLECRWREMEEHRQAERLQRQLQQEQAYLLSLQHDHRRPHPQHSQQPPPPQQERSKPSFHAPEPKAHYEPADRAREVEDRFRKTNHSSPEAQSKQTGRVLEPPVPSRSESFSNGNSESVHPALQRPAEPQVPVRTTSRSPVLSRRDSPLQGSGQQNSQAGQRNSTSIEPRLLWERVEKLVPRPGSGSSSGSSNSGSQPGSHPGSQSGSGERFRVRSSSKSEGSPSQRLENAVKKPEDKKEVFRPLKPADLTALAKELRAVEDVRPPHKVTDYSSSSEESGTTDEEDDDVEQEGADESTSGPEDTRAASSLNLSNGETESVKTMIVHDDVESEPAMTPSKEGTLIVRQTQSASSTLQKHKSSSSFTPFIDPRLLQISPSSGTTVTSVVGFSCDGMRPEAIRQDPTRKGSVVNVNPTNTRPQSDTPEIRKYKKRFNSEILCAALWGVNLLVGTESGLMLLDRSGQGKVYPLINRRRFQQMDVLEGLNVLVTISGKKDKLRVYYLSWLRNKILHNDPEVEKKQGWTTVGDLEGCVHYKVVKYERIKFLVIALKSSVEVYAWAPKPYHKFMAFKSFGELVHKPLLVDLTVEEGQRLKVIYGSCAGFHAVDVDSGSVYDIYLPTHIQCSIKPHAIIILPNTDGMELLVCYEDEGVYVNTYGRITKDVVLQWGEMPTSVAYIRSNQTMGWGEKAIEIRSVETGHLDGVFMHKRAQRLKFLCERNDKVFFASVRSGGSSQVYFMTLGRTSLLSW
PIM1, sequence (P11309 whole entry): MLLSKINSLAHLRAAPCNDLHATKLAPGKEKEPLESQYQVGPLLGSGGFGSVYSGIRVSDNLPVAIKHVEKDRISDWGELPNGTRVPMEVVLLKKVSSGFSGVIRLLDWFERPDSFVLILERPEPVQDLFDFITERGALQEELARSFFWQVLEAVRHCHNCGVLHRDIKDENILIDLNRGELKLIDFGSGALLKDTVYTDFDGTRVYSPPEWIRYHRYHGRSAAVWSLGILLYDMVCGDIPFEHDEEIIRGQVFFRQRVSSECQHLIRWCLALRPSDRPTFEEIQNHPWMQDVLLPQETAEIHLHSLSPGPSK

SMILES	inhibition at 1 µM (ABL1 Y253F) [%]	inhibition at 1 µM (MAP4K4 (HGK)) [%]	inhibition at 1 µM (FLT3 D835Y) [%]	inhibition at 1 µM (FES (FPS)) [%]	inhibition at 1 µM (GRK4) [%]	inhibition at 1 µM (HCK) [%]	inhibition at 1 µM (ABL1 T315I) [%]	inhibition at 1 µM (PIM1) [%]	inhibition at 1 µM (IKBKB (IKK beta)) [%]	inhibition at 1 µM (PRKCD (PKC delta)) [%]	inhibition at 1 µM (MAPK1 (ERK2)) [%]	inhibition at 1 µM (PDGFRA T674I) [%]	inhibition at 1 µM (PTK2B (FAK2)) [%]	other results
Cc1ccc2nnc(Sc3ccc4ncc(-c5cnn(C)c5)cc4c3)n2n1 [Compound 41, 3-(1-Methyl-1H-pyrazol-4-yl)-6-(6-methyl-[1,2,4]triazolo[4,3-b]pyridazin-3-ylsulfanyl)-quinoline]	30	27	35	1	-4	9	47	0	1	5	0	-1	12	decrease of mean tumor volume compared to vehicle-treated group (GTL16 tumors; 1 mg/kg PO Q12H, 13 consecutive days): 42%; decrease of mean tumor volume compared to vehicle-treated group (GTL16 tumors; 3 mg/kg PO Q12H, 13 consecutive days): 67%; decrease of mean tumor volume compared to vehicle-treated group (GTL16 tumors; 10 mg/kg PO Q12H, 13 consecutive days): 80%; decrease of mean tumor volume compared to vehicle-treated group (GTL16 tumors; 30 mg/kg PO Q12H, 13 consecutive days): 87%; inhibition at 1 µM (FRAP1 (mTOR)): 0%; inhibition at 1 µM (KDR (VEGFR2)): 16%; IC50 (c-MET): < 100 nM; inhibition at 1 µM (MET (cMet)): 98%; inhibition at 1 µM (MET M1250T): 89%
Cn1cc(-c2ccc3nnc(Sc4ccc5ncccc5c4)n3n2)cn1 [Compound 4, 6-[6-(1-Methyl-1H-pyrazol-4-yl)-[1,2,4]triazolo[4,3-b]pyridazin-3-ylsulfanyl]-quinoline]	20	-1	8	5	2	8	11	4	-5	4	9	-9	6	decrease of mean tumor volume compared to vehicle-treated group (GTL16 tumors; 10 mg/kg PO Q12H, 14 consecutive days): 65%; decrease of mean tumor volume compared to vehicle-treated group (GTL16 tumors; 20 mg/kg PO Q12H, 14 consecutive days): 75%; decrease of mean tumor volume compared to vehicle-treated group (GTL16 tumors; 30 mg/kg PO Q12H, 14 consecutive days): 81%; decrease of mean tumor volume compared to vehicle-treated group (GTL16 tumors; 60 mg/kg PO Q24H, 14 consecutive days): 75%; decrease of mean tumor volume compared to vehicle-treated group (GTL16 tumors; 100 mg/kg PO Q12H, 14 consecutive days): 87%
